1 compound from ChEMBL document CHEMBL3769377, “A synthesis, in silico, in vitro and in vivo study of thieno[2,3-b]pyridine anticancer analogues” (Medchemcomm, 2015) can be followed below.

Test [1] addresses Cyclin-dependent kinase 9 (Homo sapiens) (UniProt P50750). Description: Inhibition of human recombinant CDK9 assessed as residual activity at 10 uM after 1 hr by qPCR analysis relative to control. On the technique in general: In qPCR the cycle at which signal appears reflects the starting amount.
Test [2] has as its target Serine/threonine-protein kinase Chk1 (Homo sapiens) (UniProt O14757). Description: Inhibition of human recombinant CHEK1 assessed as residual activity at 10 uM after 1 hr by qPCR analysis relative to control.
Test [3] has as its target Macrophage colony-stimulating factor 1 receptor (Homo sapiens) (UniProt P07333). Description: Inhibition of human recombinant CSF1R assessed as residual activity at 10 uM after 1 hr by qPCR analysis relative to control.
The target in test [4] is Ephrin type-A receptor 2 (Homo sapiens) (UniProt P29317). Description: Inhibition of human recombinant EPHA2 assessed as residual activity at 10 uM after 1 hr by qPCR analysis relative to control.
Test [5] has as its system Epidermal growth factor receptor (Homo sapiens), P00533 [L858R]. Description: Inhibition of human recombinant EGFR L858R mutant assessed as residual activity at 10 uM after 1 hr by qPCR analysis relative to control. It counts as protein assay.
The target of test [6] is Insulin receptor (Homo sapiens) (UniProt P06213). Description: Inhibition of human recombinant INSR assessed as residual activity at 10 uM after 1 hr by qPCR analysis relative to control.
In test [7] the target is Hepatocyte growth factor receptor (Homo sapiens) (UniProt P08581). Description: Inhibition of human recombinant MET assessed as residual activity at 10 uM after 1 hr by qPCR analysis relative to control.
In test [8] the target is MAP kinase-interacting serine/threonine-protein kinase 1 (Homo sapiens) (UniProt Q9BUB5). Description: Inhibition of human recombinant MKNK1 assessed as residual activity at 10 uM after 1 hr by qPCR analysis relative to control.
The target of test [9] is Testis-specific serine/threonine-protein kinase 1 (Homo sapiens) (UniProt Q9BXA7). Description: Inhibition of human recombinant TSSK1B assessed as residual activity at 10 uM after 1 hr by qPCR analysis relative to control.
Test [10] deals with RAC-alpha serine/threonine-protein kinase (Homo sapiens) (UniProt P31749). Kind of test: Inhibition of human recombinant AKT1 assessed as residual activity at 10 uM after 1 hr by qPCR analysis relative to control.
In test [11] the target is Cyclin-dependent kinase 2 (Homo sapiens) (UniProt P24941). Kind of test: Inhibition of human recombinant CDK2 assessed as residual activity at 10 uM after 1 hr by qPCR analysis relative to control.
For test [12], the target named is Cyclin-dependent kinase 3 (Homo sapiens) (UniProt Q00526). Description: Inhibition of human recombinant CDK3 assessed as residual activity at 10 uM after 1 hr by qPCR analysis relative to control.

Sequence of Hepatocyte growth factor receptor (Homo sapiens) (P08581 whole entry): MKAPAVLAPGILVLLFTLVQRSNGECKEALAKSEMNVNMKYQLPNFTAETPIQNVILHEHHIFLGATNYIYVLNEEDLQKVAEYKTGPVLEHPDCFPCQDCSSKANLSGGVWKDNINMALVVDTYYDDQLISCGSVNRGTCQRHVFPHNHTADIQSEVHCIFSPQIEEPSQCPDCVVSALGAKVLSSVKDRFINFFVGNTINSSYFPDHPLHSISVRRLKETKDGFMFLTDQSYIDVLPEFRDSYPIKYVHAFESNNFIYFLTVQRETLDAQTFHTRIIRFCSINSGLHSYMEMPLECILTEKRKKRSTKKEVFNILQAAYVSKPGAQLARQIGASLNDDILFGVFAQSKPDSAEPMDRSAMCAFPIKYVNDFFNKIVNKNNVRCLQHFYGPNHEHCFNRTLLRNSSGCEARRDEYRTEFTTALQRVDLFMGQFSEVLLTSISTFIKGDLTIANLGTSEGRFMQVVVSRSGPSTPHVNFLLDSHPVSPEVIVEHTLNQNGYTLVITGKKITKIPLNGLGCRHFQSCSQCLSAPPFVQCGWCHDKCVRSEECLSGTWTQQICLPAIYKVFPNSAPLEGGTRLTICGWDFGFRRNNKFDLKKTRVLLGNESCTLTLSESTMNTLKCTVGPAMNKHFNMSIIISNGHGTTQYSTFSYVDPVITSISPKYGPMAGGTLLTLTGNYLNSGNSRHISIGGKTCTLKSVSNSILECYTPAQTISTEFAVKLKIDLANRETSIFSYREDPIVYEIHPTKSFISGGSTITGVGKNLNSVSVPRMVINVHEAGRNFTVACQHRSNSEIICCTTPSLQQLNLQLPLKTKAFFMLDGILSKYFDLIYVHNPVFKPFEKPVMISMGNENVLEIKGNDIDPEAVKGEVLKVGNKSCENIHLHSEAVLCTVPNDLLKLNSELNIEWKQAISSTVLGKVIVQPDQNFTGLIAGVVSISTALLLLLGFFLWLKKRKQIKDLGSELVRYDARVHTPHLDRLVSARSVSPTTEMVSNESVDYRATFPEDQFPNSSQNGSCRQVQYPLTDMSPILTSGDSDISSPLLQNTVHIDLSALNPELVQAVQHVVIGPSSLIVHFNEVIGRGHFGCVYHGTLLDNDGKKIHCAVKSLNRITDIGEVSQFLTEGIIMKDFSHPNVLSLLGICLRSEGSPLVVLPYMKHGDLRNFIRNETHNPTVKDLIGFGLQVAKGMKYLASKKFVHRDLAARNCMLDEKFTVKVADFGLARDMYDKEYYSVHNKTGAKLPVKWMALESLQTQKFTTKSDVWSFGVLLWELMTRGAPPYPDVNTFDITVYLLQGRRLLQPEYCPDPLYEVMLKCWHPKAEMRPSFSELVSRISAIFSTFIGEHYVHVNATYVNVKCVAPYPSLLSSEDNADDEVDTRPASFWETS
Sequence of Testis-specific serine/threonine-protein kinase 1 (Homo sapiens) (Q9BXA7 whole entry): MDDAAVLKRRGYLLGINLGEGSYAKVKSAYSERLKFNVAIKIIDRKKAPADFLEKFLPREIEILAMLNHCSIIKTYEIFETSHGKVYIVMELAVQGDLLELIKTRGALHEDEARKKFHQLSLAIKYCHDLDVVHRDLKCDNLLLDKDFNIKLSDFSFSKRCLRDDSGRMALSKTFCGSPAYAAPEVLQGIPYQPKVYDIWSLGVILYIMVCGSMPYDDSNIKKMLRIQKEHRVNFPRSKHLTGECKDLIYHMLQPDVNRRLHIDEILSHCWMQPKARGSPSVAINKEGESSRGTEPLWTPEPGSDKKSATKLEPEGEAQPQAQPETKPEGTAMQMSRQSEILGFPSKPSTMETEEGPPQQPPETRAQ
Sequence of MAP kinase-interacting serine/threonine-protein kinase 1 (Homo sapiens) (Q9BUB5 whole entry, looked up): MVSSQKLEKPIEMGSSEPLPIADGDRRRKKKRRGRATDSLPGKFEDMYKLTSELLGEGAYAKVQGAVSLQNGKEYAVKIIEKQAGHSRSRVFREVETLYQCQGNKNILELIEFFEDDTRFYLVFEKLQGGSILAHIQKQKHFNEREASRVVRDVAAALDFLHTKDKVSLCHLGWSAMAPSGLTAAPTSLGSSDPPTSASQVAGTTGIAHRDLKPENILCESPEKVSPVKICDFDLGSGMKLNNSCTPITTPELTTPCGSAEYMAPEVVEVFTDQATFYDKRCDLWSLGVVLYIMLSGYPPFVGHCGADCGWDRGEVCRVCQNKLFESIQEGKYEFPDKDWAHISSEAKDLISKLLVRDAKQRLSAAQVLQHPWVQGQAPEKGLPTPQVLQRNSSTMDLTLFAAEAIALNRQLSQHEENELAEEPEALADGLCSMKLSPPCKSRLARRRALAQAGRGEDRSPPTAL
Sequence of Serine/threonine-protein kinase Chk1 (Homo sapiens) (O14757 whole entry): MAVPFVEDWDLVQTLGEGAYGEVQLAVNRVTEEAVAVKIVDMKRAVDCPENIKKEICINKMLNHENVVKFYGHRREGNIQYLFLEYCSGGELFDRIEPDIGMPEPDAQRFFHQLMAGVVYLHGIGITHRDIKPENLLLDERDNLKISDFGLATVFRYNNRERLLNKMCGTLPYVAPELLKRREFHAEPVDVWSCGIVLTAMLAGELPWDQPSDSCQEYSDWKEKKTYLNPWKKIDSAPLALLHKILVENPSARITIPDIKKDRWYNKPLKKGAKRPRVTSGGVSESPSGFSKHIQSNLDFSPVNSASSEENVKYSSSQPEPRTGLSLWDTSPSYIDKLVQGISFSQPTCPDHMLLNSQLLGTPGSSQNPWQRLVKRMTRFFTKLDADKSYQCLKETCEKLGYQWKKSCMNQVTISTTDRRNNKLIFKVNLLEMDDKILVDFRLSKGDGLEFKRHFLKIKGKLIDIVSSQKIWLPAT
Sequence of Insulin receptor (Homo sapiens) (P06213 28-758 limits assumed): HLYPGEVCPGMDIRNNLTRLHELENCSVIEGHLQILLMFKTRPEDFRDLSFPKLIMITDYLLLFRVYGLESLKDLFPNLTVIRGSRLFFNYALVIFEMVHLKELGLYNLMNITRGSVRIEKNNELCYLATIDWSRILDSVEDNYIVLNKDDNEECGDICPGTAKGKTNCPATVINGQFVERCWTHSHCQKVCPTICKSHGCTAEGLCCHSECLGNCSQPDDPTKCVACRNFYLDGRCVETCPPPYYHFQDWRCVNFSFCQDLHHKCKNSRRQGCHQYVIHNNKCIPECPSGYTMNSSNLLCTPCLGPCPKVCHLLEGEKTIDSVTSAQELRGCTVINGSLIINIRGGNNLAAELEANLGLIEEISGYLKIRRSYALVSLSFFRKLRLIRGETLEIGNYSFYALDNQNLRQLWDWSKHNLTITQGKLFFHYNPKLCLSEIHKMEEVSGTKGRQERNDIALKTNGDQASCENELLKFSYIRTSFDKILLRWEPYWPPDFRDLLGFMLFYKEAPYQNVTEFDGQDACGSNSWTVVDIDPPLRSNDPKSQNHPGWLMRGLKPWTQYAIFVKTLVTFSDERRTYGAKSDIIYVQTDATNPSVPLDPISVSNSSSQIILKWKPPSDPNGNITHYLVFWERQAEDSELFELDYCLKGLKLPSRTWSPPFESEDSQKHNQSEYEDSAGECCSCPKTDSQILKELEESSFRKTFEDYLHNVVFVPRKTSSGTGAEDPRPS
Sequence of Insulin receptor (Homo sapiens) (P06213 763-1382 limits assumed): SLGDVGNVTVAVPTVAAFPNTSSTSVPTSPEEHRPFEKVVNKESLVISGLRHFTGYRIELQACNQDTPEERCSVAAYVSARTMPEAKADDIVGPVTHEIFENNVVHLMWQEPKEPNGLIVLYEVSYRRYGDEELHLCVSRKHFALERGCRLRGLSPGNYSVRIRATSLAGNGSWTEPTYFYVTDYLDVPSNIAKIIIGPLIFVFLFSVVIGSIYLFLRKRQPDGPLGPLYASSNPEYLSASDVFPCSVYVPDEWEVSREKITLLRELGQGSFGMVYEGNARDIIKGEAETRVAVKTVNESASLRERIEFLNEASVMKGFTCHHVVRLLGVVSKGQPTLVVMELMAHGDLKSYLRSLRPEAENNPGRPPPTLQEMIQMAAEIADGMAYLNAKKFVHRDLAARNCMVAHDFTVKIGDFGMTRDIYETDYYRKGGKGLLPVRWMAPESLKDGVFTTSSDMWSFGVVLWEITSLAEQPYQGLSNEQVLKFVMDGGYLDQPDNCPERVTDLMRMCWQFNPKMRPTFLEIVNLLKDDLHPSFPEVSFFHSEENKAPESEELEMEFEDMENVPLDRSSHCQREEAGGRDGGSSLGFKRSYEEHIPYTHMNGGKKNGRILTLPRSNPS
Sequence of Ephrin type-A receptor 2 (Homo sapiens) (P29317 whole entry): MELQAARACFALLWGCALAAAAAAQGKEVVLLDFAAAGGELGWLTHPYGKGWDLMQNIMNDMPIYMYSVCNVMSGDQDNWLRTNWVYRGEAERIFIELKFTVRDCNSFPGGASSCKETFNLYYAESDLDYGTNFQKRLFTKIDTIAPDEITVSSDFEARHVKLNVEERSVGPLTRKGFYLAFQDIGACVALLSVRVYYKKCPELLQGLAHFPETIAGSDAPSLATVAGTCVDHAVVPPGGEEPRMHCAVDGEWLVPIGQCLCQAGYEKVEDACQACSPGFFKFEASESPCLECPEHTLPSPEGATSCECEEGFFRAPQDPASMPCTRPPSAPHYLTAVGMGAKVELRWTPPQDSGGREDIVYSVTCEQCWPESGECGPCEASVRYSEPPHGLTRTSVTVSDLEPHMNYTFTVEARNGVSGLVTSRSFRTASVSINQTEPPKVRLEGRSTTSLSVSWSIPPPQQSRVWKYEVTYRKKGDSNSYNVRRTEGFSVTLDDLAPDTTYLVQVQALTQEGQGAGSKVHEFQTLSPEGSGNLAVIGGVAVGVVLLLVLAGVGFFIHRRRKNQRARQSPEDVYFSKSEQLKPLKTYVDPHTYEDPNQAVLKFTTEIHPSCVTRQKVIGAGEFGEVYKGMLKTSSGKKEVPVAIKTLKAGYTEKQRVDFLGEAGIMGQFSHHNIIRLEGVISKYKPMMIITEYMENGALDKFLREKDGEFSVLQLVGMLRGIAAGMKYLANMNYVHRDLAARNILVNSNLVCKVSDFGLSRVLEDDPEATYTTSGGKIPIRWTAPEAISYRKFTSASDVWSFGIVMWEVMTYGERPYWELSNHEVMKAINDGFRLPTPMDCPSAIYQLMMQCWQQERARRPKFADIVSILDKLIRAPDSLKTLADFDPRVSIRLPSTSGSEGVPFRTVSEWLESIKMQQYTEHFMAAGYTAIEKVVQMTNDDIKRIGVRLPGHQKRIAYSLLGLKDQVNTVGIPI

Turning to `Cc1c(Cl)cccc1NC(=O)c1sc2nc3c(cc2c1N)C(=O)CC3`, the Activity is 100% in [1]; 94% in test [2]; 100% in test [3]; 100% in [4]; 92% in [5]; 97% in test [6]. The Activity in test [7] stood at 100%; in test [8], 100%; in test [9] it was 65%; in [10], 90%; in test [11], 100%; in test [12], 100%.
